Assay results from ChEMBL document CHEMBL1130813, “Novel euglycemic and hypolipidemic agents: Part-2. Antioxidant moiety as structural motif” (1998).
Active and inactive are the calls of the source. No cut-off for these calls is given here.

What was measured:
Mus musculus [1] = test: Percent reduction in plasma triglyceride level was evaluated in mice at a dose of 200 mg/kg/day p.o. for 9 days; format: functional; details: route oral
Mus musculus [2] = test: Percent reduction in plasma blood glucose level was evaluated in mice at a dose of 200 mg/kg/day p.o. for 9 days; format: functional; details: route oral
Mus musculus [3] = test: Percent reduction in plasma triglyceride level was evaluated in mice at a dose of 200 mg/kg/day p.o. for 9 days; not applicable; format: functional, organism-based

SMILES | Reduction (Mus musculus [1]) [%] | Reduction (Mus musculus [2]) [%] | Reduction (Mus musculus [3])
Cc1c(C)c2c(c(C)c1O)C(CN(C)CCOc1ccc(/C=C3\SC(=O)NC3=O)cc1)C(C)(C)O2 (stereo not given) | 71 | 46 | 
CC(=O)O.Cc1c(C)c2c(c(C)c1O)CCC(C)(CN(C)CCOc1ccc(/C=C3\SC(=O)NC3=O)cc1)O2 (stereo not given) | 31 | 11 | 
Cc1c(C)c2c(c(C)c1O)C(CN(C)CCOc1ccc(CC3SC(=O)NC3=O)cc1)C(C)(C)O2 (stereo not given) | 33 | 17 | 
CCN(CCOc1ccc(/C=C2\SC(=O)NC2=O)cc1)CC1(C)CCc2c(C)c(O)c(C)c(C)c2O1 (stereo not given) | 76 | 2 | 
Cc1c(C)c2c(c(C)c1O)CCC(C)(CN(C)CCOc1ccc(/C=C3\SC(=O)NC3=O)cc1)O2.Cl (stereo not given) | 30 | 31 | 
Cc1c(C)c2c(c(C)c1O)CCC(C)(CN(C)CCOc1ccc(CC3SC(=O)NC3=O)cc1)O2 (stereo not given) |  | 4 | inactive
Cc1c(C)c2c(c(C)c1O)CCC(C)(COc1ccc(CC3SC(=O)NC3=O)cc1)O2 (stereo not given) [TROGLITAZONE] | 50 | 24 | 
Cc1c(C)c2c(c(C)c1OCc1ccccc1)CCC(C)(CN(C)CCOc1ccc(/C=C3\SC(=O)NC3=O)cc1)O2 (stereo not given) | 32 | 39 | 
CS(=O)(=O)O.Cc1c(C)c2c(c(C)c1O)CCC(C)(CN(C)CCOc1ccc(/C=C3\SC(=O)NC3=O)cc1)O2 (stereo not given) | 70 | 20 | 
Cc1c(C)c2c(c(C)c1O)C(CN(C)CCOc1ccc(/C=C3\SC(=O)NC3=O)cc1)C(C)(C)O2.O=C(O)/C=C\C(=O)O (stereo not given) | 33 | 35 | 
Cc1c(C)c2c(c(C)c1O)C(COc1ccc(CC3SC(=O)NC3=O)cc1)C(C)(C)O2 (stereo not given) | 40 | 19 | 
Cc1c(C)c2c(c(C)c1O)CCC(C)(CN(C)CCOc1ccc(/C=C3\SC(=O)NC3=O)cc1)O2 (stereo not given) | 70 | 43 | 
Cc1c(C)c2c(c(C)c1OCc1ccccc1)C(CN(C)CCOc1ccc(/C=C3\SC(=O)NC3=O)cc1)C(C)(C)O2 (stereo not given) |  | 23 | inactive
Cc1c(C)c2c(c(C)c1O)CCC(C)(CNCCOc1ccc(/C=C3\SC(=O)NC3=O)cc1)O2 (stereo not given) | 29 | 6 | 
Cc1c(C)c2c(c(C)c1O)CCC(C)(CN(C)CCOc1ccc(/C=C3\SC(=O)NC3=O)cc1)O2.O=C(O)/C=C\C(=O)O (stereo not given) | 60 | 20 | 
